Assays:
[1] = system: TNFα production in LPS-stimulated human monocytes; experiment: Cot Monocyte TNFα Cell Based Assay; conditions: Homo sapiens, Monocyte, TNFα in LPS-stimulated human monocytes; read-out: EC50 TNF
Summary of the method: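 5,000 cells/well; cmpd 1 h, 37 °C, 0.5% DMSO final; LPS 50 pg/ml, 4 h, 37 °C; media TNFα by HTRF sandwich (cryptate/XL665), RT overnight; % control vs unstimulated/stimulated wells.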

[2] = biological target: T1, human Cot catalytic domain (30-397 amino acids) (Homo sapiens, UniProt P41279); experiment: High Throughput Cot Biochemical Assay (KinEASE TR-FRET); conditions: Cot KinEASE TR-FRET (HTRF) biochemical assay, 400 μM ATP; read-out: IC50 HTRF
T1 construct: Purified recombinant human Cot catalytic domain (30-397 amino acids) was purchased from Cama Biosciences; purchased Cama Biosciences (so in the source)
Summary of the method: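 First, purified human Cot (aa 30-397) at 5 nM phosphorylates an XL665-labeled STK3 peptide (1 μM) at 400 μM ATP, pH 7.0, 0.1% DMSO. Then a europium-conjugated phospho-specific antibody binds the product, giving the TR-FRET signal.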

T1 sequence (P41279 30-397): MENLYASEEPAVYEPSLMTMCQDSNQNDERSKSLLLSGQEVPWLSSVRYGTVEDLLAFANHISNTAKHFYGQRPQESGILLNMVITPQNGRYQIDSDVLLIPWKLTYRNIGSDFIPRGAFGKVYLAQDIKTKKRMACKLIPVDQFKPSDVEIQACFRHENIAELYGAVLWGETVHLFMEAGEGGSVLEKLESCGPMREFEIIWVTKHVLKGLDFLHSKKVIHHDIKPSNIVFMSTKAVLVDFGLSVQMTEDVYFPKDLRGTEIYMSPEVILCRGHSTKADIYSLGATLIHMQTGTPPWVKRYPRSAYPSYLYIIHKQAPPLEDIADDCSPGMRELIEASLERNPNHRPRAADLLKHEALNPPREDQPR

EC50 [1] [nM]	IC50 [2] [nM]	SMILES
287	26	[2H][C@](Nc1cc(Cl)c2ncc(C#N)c(NCC(C)(C)C)c2c1)(c1cn(CC2CCO2)nn1)c1ccccc1Cl (stereo partly shown) [Example 90, 8-chloro-6-(((2-chlorophenyl) (1-(oxetan-2-ylmethyl)-1H-1,2,3-triazol-4-yl)methyl-d)amino)-4-(neopentylamino) quinoline-3-carbonitrile]
832	59	[2H][C@](Nc1cc(Cl)c2ncc(C#N)c(NCC(C)(C)C)c2c1)(c1cn(CC(F)(F)F)nn1)c1ccccc1Cl [Example 93, 8-chloro-6-(((2-chlorophenyl) (1-(2,2,2-trifluoroethyl)-1H-1,2,3-triazol-4-yl)methyl-d)amino)-4-(neopentylamino) quinoline-3-carbonitrile]
> 1000	24	CC(C)(C)CNc1c(C#N)cnc2c(Cl)cc(N[C@@H](c3cccc(-c4ccccc4)c3)c3cn(C4CC4)nn3)cc12 [Example 95, (S)-6-(([1,1'-biphenyl]-3-yl(1-cyclopropyl-1H-1,2,3-triazol-4-yl)methyl)amino)-8-chloro-4-(neopentylamino) quinoline-3-carbonitrile]
> 1000	985	CC(C)(C)CNc1c(C#N)cnc2c(Cl)cc(N[C@H](c3cn(C4CC4)nn3)c3ccccc3-c3ccccc3)cc12 [Example 97, (S)-6-(([1,1'-biphenyl]-2-yl(1-cyclopropyl-1H-1,2,3-triazol-4-yl)methyl)amino)-8-chloro-4-(neopentylamino) quinoline-3-carbonitrile]
> 1000	83	[2H][C@@](Nc1cc(Cl)c2ncc(C#N)c(NCC(C)(C)C)c2c1)(c1cn(C2CC2)nn1)c1c(F)cccc1Cl [Example 101, (S)-8-chloro-6-(((2-chloro-6-fluorophenyl) (1-cyclopropyl-1H-1,2,3-triazol-4-yl)methyl-d)amino)-4-(neopentylamino) quinoline-3-carbonitrile]
> 1000	58	[2H][C@](Nc1cc(I)c2ncc(C#N)c(NCC(C)(C)C)c2c1)(c1ccc(F)cc1)c1cn(C2CC2)nn1 [Example 102, (S)-6-(((1-cyclopropyl-1H-1,2,3-triazol-4-yl)(4-fluorophenyl)methyl-d)amino)-8-iodo-4-(neopentylamino) quinoline-3-carbonitrile]
522	50	[2H][C@@](Nc1cc(Cl)c2ncc(C#N)c(NCC(C)(C)C)c2c1)(c1cn(CC2(F)COC2)nn1)c1ccccc1Cl [Example 103, 8-chloro-6-(((2-chlorophenyl) (1-((3-fluorooxetan-3-yl)methyl)-1H-1,2,3-triazol-4-yl)methyl-d)amino)-4-(neopentylamino) quinoline-3-carbonitrile]
826	58	[2H]C(Nc1cc(Cl)c2ncc(C#N)c(NCC(C)(C)C)c2c1)(c1cn(C2(C(F)(F)F)CC2)nn1)c1ccccc1Cl (stereo not shown) [Example 106, 8-chloro-6-(((2-chlorophenyl) (1-(1-(trifluoromethyl)cyclopropyl)-1H-1,2,3-triazol-4-yl)methyl-d)amino)-4-(neopentylamino) quinoline-3-carbonitrile]
133	16	[2H][C@](Nc1cc(Cl)c2ncc(C#N)c(Nc3cccc(Cl)c3OC3CC3)c2c1)(c1ccc(F)cc1)c1cn(C2CC2)nn1 [Example 110, (S)-8-chloro-4-((3-chloro-2-cyclopropoxyphenyl)amino)-6-(((1-cyclopropyl-1H-1,2,3-triazol-4-yl)(4-fluorophenyl)methyl-d)amino) quinoline-3-carbonitrile]
> 10000	3	CC[C@@H](Nc1c(C#N)cnc2c(Cl)cc(N[C@@H](c3ccc(F)cc3)c3cn(CC(=O)O)nn3)cc12)c1ccccc1 [Example 115, 2-(4-((S)-((8-chloro-3-cyano-4-(((R)-1-phenylpropyl)amino)quinolin-6-yl)amino)(4-fluorophenyl)methyl)-1H-1,2,3-triazol-1-yl) acetic acid]
> 10000	14	[2H][C@](Nc1cc(Cl)c2ncc(C#N)c(Nc3ccc(F)c(Cl)c3)c2c1)(c1ccc(F)cc1)c1cn(CC(=O)O)nn1 [Example 116, (S)-2-(4-(((8-chloro-4-((3-chloro-4-fluorophenyl)amino)-3-cyanoquinolin-6-yl)amino)(4-fluorophenyl)methyl-d)-1H-1,2,3-triazol-1-yl)acetic acid]
201	19	CC(C)(C)CNc1c(C#N)cnc2c(Cl)cc(N[C@H](c3cn(C4CC4)nn3)c3ccccc3OC(F)(F)F)cc12 [Example 122, (S)-8-chloro-6-(((1-cyclopropyl-1H-1,2,3-triazol-4-yl)(2-(trifluoromethoxy)phenyl)methyl)amino)-4-(neopentylamino) quinoline-3-carbonitrile]

The remaining lines, values behind:

SMILES	EC50 [1] [nM]	IC50 [2] [nM]
CC[C@@H](Nc1c(C#N)cnc2c(Cl)cc(N[C@@H](c3cccc(-c4ccccc4)c3)c3cn(C4CC4)nn3)cc12)c1ccccc1 [Example 94, 6-(((S)-[1,1'-biphenyl]-3-yl(1-cyclopropyl-1H-1,2,3-triazol-4-yl)methyl)amino)-8-chloro-4-(((R)-1-phenylpropyl)amino) quinoline-3-carbonitrile]	> 1000	12
CC[C@@H](Nc1c(C#N)cnc2c(Cl)cc(N[C@H](c3cn(C4CC4)nn3)c3ccccc3-c3ccccc3)cc12)c1ccccc1 [Example 96, 6-(((S)[1,1'-biphenyl]-2-yl(1-cyclopropyl-1H-1,2,3-triazol-4-yl)methyl)amino)-8-chloro-4-(((R)-1-phenylpropyl)amino) quinoline-3-carbonitrile]	> 1000	778
[2H][C@](Nc1cc(Cl)c2ncc(C#N)c(NCC(C)(C)C)c2c1)(c1cn(C2CC2(F)F)nn1)c1ccccc1Cl (stereo partly shown) [Example 99, 8-chloro-6-(((2-chlorophenyl) (1-(2,2-difluorocyclopropyl)-1H-1,2,3-triazol-4-yl)methyl-d)amino)-4-(neopentylamino) quinoline-3-carbonitrile]	454	19
[2H][C@](Nc1cc(Cl)c2ncc(C#N)c(NCC(C)(C)C)c2c1)(c1cn(C2[C@H]3CN(C4COC4)C[C@@H]23)nn1)c1ccccc1Cl (stereo partly drawn) [Example 100, 8-chloro-6-(((2-chlorophenyl) (1-((1R,5S,6r)-3-(oxetan-3-yl)-3-azabicyclo[3.1.0]hexan-6-yl)-1H-1,2,3-triazol-4-yl)methyl-d)amino)-4-(neopentylamino) quinoline-3-carbonitrile]	337	16
[2H][C@@](Nc1cc(Cl)c2ncc(C#N)c(NCC(C)(C)C)c2c1)(c1cn(CC2(O)COC2)nn1)c1ccccc1Cl [Example 104, 8-chloro-6-(((2-chlorophenyl) (1-((3-hydroxyoxetan-3-yl)methyl)-1H-1,2,3-triazol-4-yl)methyl-d)amino)-4-(neopentylamino) quinoline-3-carbonitrile]	584	23
[2H]C(Nc1cc(Cl)c2ncc(C#N)c(NCC(C)(C)C)c2c1)(c1cn(C2(C)CC2)nn1)c1ccccc1Cl (stereo not shown) [Example 107, 8-chloro-6-(((2-chlorophenyl)(1-(1-methylcyclopropyl)-1H-1,2,3-triazol-4-yl)methyl-d)amino)-4-(neopentylamino) quinoline-3-carbonitrile]	272	14
[2H][C@@](Nc1cc(Cl)c2ncc(C#N)c(NCC(C)(C)C)c2c1)(c1cn(CC(=O)O)nn1)c1ccccc1Cl [Example 108, (S)-2-(4-(((8-chloro-3-cyano-4-(neopentylamino)quinolin-6-yl)amino)(2-chlorophenyl)methyl-d)-1H-1,2,3-triazol-1-yl)acetic acid]	> 1000	48
[2H][C@](Nc1cc(Cl)c2ncc(C#N)c(NCC(C)(C)C)c2c1)(c1cn(C(C)(C)C)nn1)c1ccccc1Cl [Example 109, 6-(((1-(tert-butyl)-1H-1,2,3-triazol-4-yl) (2-chlorophenyl)methyl-d)amino)-8-chloro-4-(neopentylamino) quinoline-3-carbonitrile]	210	17
[2H][C@](Nc1cc(Cl)c2ncc(C#N)c(N[C@@H](c3ccccc3)[C@@H]3C[C@H]3C#N)c2c1)(c1ccc(F)cc1)c1cn(C2CC2)nn1 [Example 111, 8-chloro-4-(((R)-((1R,2R)-2-cyanocyclopropyl) (phenyl)methyl)amino)-6-(((S)-(1-cyclopropyl-1H-1,2,3-triazol-4-yl)(4-fluorophenyl)methyl-d)amino)quinoline-3-carbonitrile]	960	72
CC(C)(C)CNc1c(C#N)cnc2c(Cl)cc(N[C@H](c3cn(C4CC4)nn3)c3ccccc3CO)cc12 [Example 114, (S)-8-chloro-6-(((1-cyclopropyl-1H-1,2,3-triazol-4-yl)(2-(hydroxymethyl)phenyl)methyl)amino)-4-(neopentylamino) quinoline-3-carbonitrile]	190	6
[2H][C@](Nc1cc(Cl)c2ncc(C#N)c(NCC(C)(C)C)c2c1)(c1cn(CC#N)nn1)c1ccccc1Cl [Example 119, 8-chloro-6-(((2-chlorophenyl)(1-(cyanomethyl)-1H-1,2,3-triazol-4-yl)methyl-d)amino)-4-(neopentylamino) quinoline-3-carbonitrile]	166	26

Source: patent publication US10316017B2, “COT modulators and methods of use thereof” (Gilead Sciences, Inc., priority 2015, dated 2019)
